# Assay results as given in patent publication US6596754B1, “Preventives/remedies for multiple organ failure” (Daiichi Pharmaceuticals Co., Ltd., priority 1998, dated 2003).
# What was measured:
# Type in all cases: in vivo, Rats (Slc: Wistar)
# IL-6 = assay: Hypercytokinemia: plasma IL-6 by ELISA after LPS administration; conditions: rats, LPS 20 mg/kg i.v.; 1 or 3 mg/kg s.c.; six hours after LPS; FIG. 1; #p <0.1
# Experimental: (§1) Rats (Slc: Wistar, male, 10 weeks old, n=7) were anesthetized by halothane. Subsequently, LPS (E. coli, 055: B5) (20 mg/2 ml/kg) was administered to each rat through the femoral vein. Immediately after administration, compound A was subcutaneously administered to each rats at a dose of 1 or 3 mg/kg. Six hours after administration of LPS, blood was collected from the abdominal aorta in the presence of citric acid, and plasma IL-6 was measured by ELISA.
# [1] = tested on: LPS intravenous administration shock model; assay: LPS intravenous administration shock model, mortality; conditions: for Mortality in terms of percentage(%) / Mortality: rats, LPS 20 mg/kg i.v., 24 hours after LPS; for Mortality in terms of percentage(%): control 100%; for Mortality: dead/total
# Experimental: Rats (Slc: Wistar, male, 10 weeks old, n=15) were anesthetized by halothane. Subsequently, lipopolysaccharide (LPS) (E. coli, 055: B5) (20 mg/2 ml/kg) was administered to each rat through the femoral vein. Immediately after administration, (2S)-2-[4-([(3S)-1-acetimidoyl-3-pyrrolidinyl]oxy)phenyl]-3-(7-amidino-2-naphthyl)propionic acid hydrochloride pentahydrate (hereinafter referred to as “Compound A”) was subcutaneously administered to each rat at a dose of 0.3, 1, or 3 mg/kg. The mortality for the rats was observed 24 hours after the administration of LPS.
# [2] = tested on: liver function parameters (GOT, GPT, LDH, and T-BIL); assay: Liver disease: liver function parameters (GOT, GPT, LDH, T-BIL) after LPS administration; conditions: six hours after LPS; for TBIL / GOT / GPT / LDH: rats, LPS 20 mg/kg i.v., Mean ± S.E. (n = 7); for TBIL: control 0.46 ± 0.15; for GOT: control 3404 ± 406; for GPT: control 3716 ± 496; for LDH: control 23847 ± 3225
# Experimental: as §1, with “each rat” for “each rats”, “of 0.3, 1,” for “of 1”, “after LPS administration,” for “after administration of LPS,”, “and the blood” for “and plasma IL-6”, “was collected to measurement of liver function parameters (GOT, GPT, LDH, and T-BIL).” for “was measured by ELISA.”
smiles,measurement,setting,value
"CC(=N)N1CC[C@H](Oc2ccc([C@H](Cc3ccc4ccc(C(=N)N)cc4c3)C(=O)O)cc2)C1.Cl.O.O.O.O.O [Compound A, (2S)-2-[4-([(3S)-1-acetimidoyl-3-pyrrolidinyl]oxy)phenyl]-3-(7-amidino-2-naphthyl)propionic acid hydrochloride pentahydrate]",Concentration of plasma IL-6 (in words),IL-6,dose-dependently suppressed the increase in concentration of IL-6
same,Effect on mortality for rats (in words),"[1]; 0.3, 1, 3 mg/kg s.c., χ2 test p<0.001",dose-dependently decreases the mortality for rats
same,Mortality in terms of percentage(%),[1]; 0.3 mg/kg s.c.,80%
same,Mortality,[1]; 0.3 mg/kg s.c.,12/15
same,Mortality in terms of percentage(%),[1]; 1 mg/kg s.c.,40%
same,Mortality,[1]; 1 mg/kg s.c.,6/15
same,Mortality in terms of percentage(%),[1]; 3 mg/kg s.c.,7%
same,Mortality,[1]; 3 mg/kg s.c.,1/15
same,Effect on liver function parameters (in words),"[2]; 0.3, 1, 3 mg/kg s.c.",dose-dependently suppressed the increase in each liver function parameter
same,TBIL,[2]; 0.3 mg/kg s.c.,0.48 ± 0.22 mg/dL
same,GOT,[2]; 0.3 mg/kg s.c.,1939 ± 442 IU/L
same,GPT,[2]; 0.3 mg/kg s.c.,1986 ± 467 IU/L
same,LDH,[2]; 0.3 mg/kg s.c.,11560 ± 2983 IU/L
same,TBIL,[2]; 1 mg/kg s.c.,0.20 ± 0.10 mg/dL
same,GOT,[2]; 1 mg/kg s.c.,1183 ± 281 IU/L
same,GPT,[2]; 1 mg/kg s.c.,1216 ± 352 IU/L
same,LDH,[2]; 1 mg/kg s.c.,6297 ± 2291 IU/L
same,TBIL,[2]; 3 mg/kg s.c.,0.10 ± 0.01 mg/dL
same,GOT,[2]; 3 mg/kg s.c.,364 ± 42 IU/L
same,GPT,[2]; 3 mg/kg s.c.,189 ± 22 IU/L
same,LDH,[2]; 3 mg/kg s.c.,972 ± 186 IU/L
